Data published in PubChem BioAssay (NCI).
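Five concentrations, 48 hours, 96-well plates. GI50 = concentration required for 50% inhibition of growth. TGI: concentration producing complete growth inhibition.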

Key:
Assay in all cases: NCI tumour cell line growth inhibition, 48 h
[1] = tested on: MDA-MB-231 breast
[2] = tested on: NCI-H522 lung
[3] = tested on: CCRF-CEM leukemia
[4] = tested on: OVCAR-3 ovarian
[5] = tested on: TK-10 renal
[6] = tested on: BT-549 breast
[7] = tested on: NCI-H460 lung
[8] = tested on: A498 renal
[9] = tested on: SF-295 CNS
[10] = tested on: SF-268 CNS
[11] = tested on: 786-0 renal
[12] = tested on: A549 NSCLC
[13] = tested on: OVCAR-4 ovarian
[14] = tested on: SW-620 colon
[15] = tested on: SK-MEL-5 melanoma
[16] = tested on: T-47D breast
[17] = tested on: IGROV1 ovarian
[18] = tested on: HCT-116 colon
[19] = tested on: OVCAR-5 ovarian
[20] = tested on: HOP-62 NSCLC
[21] = tested on: MALME-3M melanoma
[22] = tested on: SF-539 CNS
[23] = tested on: HS 578T breast
[24] = tested on: HOP-92 NSCLC
[25] = tested on: HL-60(TB) leukemia
[26] = tested on: HCT-15 colon
[27] = tested on: LOX IMVI melanoma
[28] = tested on: COLO 205 colon
[29] = tested on: SK-MEL-28 melanoma
[30] = tested on: K-562 leukemia
[31] = tested on: UO-31 renal
[32] = tested on: SR leukemia
[33] = tested on: U251 CNS
[34] = tested on: MDA-MB-468 breast
[35] = tested on: HCC-2998 colon
[36] = tested on: UACC-257 melanoma
[37] = tested on: MOLT-4 leukemia
[38] = tested on: CAKI-1 renal
[39] = tested on: SN12C renal
[40] = tested on: SNB-19 CNS
[41] = tested on: UACC-62 melanoma
[42] = tested on: EKVX NSCLC
[43] = tested on: MDA-MB-435
[44] = tested on: RPMI-8226 leukemia
[45] = tested on: HT29 colon
[46] = tested on: SK-OV-3 ovarian
[47] = tested on: PC-3 prostate
[48] = tested on: RXF 393 renal
[49] = tested on: OVCAR-8 ovarian
[50] = tested on: MCF7 breast
[51] = tested on: ACHN renal
[52] = tested on: SK-MEL-2 melanoma
[53] = tested on: NCI-H23 lung
[54] = tested on: M14 melanoma
[55] = tested on: KM12 colon
[56] = tested on: DU-145 prostate
[57] = tested on: NCI-H226 lung

Cn1cc(-c2cc(N)n3nc(-c4c[nH]c5ccc(F)cc45)cc3n2)c2cc(Br)cnc21
GI50 [1]: 5.28 µM
TGI [1]: 24.5 µM
GI50 [2]: 5.77 µM
TGI [2]: 40.4 µM
GI50 [3]: 3.45 µM
TGI [3]: 20.2 µM
GI50 [4]: > 100 µM
TGI [4]: > 100 µM
GI50 [5]: 26.5 µM
TGI [5]: > 100 µM
GI50 [6]: > 100 µM
TGI [6]: > 100 µM
GI50 [7]: 6.63 µM
TGI [7]: 24.8 µM
GI50 [8]: > 100 µM
TGI [8]: > 100 µM
GI50 [9]: 9.9 µM
TGI [9]: 39.1 µM
GI50 [10]: > 100 µM
TGI [10]: > 100 µM
GI50 [11]: 8.47 µM
TGI [11]: 22.2 µM
GI50 [12]: 16.4 µM
TGI [12]: > 100 µM
GI50 [13]: 22.5 µM
TGI [13]: > 100 µM
GI50 [14]: 6.93 µM
TGI [14]: 21.9 µM
GI50 [15]: 31.3 µM
TGI [15]: > 100 µM
GI50 [16]: 34 µM
TGI [16]: > 100 µM
GI50 [17]: 14.3 µM
TGI [17]: > 100 µM
GI50 [18]: 32.2 µM
TGI [18]: > 100 µM
GI50 [19]: 21.9 µM
TGI [19]: > 100 µM
GI50 [20]: 62.2 µM
TGI [20]: > 100 µM
GI50 [21]: 10.4 µM
TGI [21]: 29.7 µM
GI50 [22]: 13.7 µM
TGI [22]: 41.2 µM
GI50 [23]: > 100 µM
TGI [23]: > 100 µM
GI50 [24]: 20.4 µM
TGI [24]: > 100 µM
GI50 [25]: 9.35 µM
TGI [25]: > 100 µM
GI50 [26]: 2.55 µM
TGI [26]: 10.7 µM
GI50 [27]: 1.96 µM
TGI [27]: 3.69 µM
GI50 [28]: 55.5 µM
TGI [28]: > 100 µM
GI50 [29]: 14.5 µM
TGI [29]: 30.2 µM
GI50 [30]: 4.09 µM
TGI [30]: 50.2 µM
GI50 [31]: 12.8 µM
TGI [31]: 64.8 µM
GI50 [32]: 4.36 µM
TGI [32]: > 100 µM
GI50 [33]: 5.72 µM
TGI [33]: 28.9 µM
GI50 [34]: 4.64 µM
TGI [34]: 18.5 µM
GI50 [35]: 4.2 µM
TGI [35]: 20.3 µM
GI50 [36]: 23.3 µM
TGI [36]: > 100 µM
GI50 [37]: 2.42 µM
TGI [37]: 21.6 µM
GI50 [38]: 6.43 µM
TGI [38]: > 100 µM
GI50 [39]: > 100 µM
TGI [39]: > 100 µM
GI50 [40]: 37.7 µM
TGI [40]: > 100 µM
GI50 [41]: 17.7 µM
TGI [41]: 72.3 µM
GI50 [42]: > 100 µM
TGI [42]: > 100 µM
GI50 [43]: 21.6 µM
TGI [43]: > 100 µM
GI50 [44]: 5.67 µM
TGI [44]: 48.5 µM
GI50 [45]: 5.04 µM
TGI [45]: 24.4 µM
GI50 [46]: > 100 µM
TGI [46]: > 100 µM
GI50 [47]: 11.4 µM
TGI [47]: > 100 µM
GI50 [48]: 2.63 µM
TGI [48]: 8.47 µM
GI50 [49]: 16.8 µM
TGI [49]: 69.6 µM
GI50 [50]: 4.11 µM
TGI [50]: 22.7 µM
GI50 [51]: 6.52 µM
TGI [51]: 43.4 µM
GI50 [52]: 26.4 µM
TGI [52]: > 100 µM
GI50 [53]: 75.3 µM
TGI [53]: > 100 µM
GI50 [54]: 12.3 µM
TGI [54]: 27.4 µM
GI50 [55]: 4 µM
TGI [55]: > 100 µM
GI50 [56]: 80.8 µM
TGI [56]: > 100 µM
GI50 [57]: 24.3 µM
TGI [57]: > 100 µM

COc1ccccc1Nc1nnc(-c2c[nH]c3ccccc23)o1
GI50 [1]: 2.91 µM
TGI [1]: 24.6 µM
GI50 [2]: 0.476 µM
TGI [2]: 3.68 µM
GI50 [3]: 0.708 µM
TGI [3]: 21 µM
GI50 [4]: 1.59 µM
TGI [4]: 9.55 µM
GI50 [5]: 7.28 µM
TGI [5]: > 100 µM
GI50 [6]: 3.07 µM
TGI [6]: 26 µM
GI50 [7]: 1.66 µM
TGI [7]: 12.8 µM
GI50 [8]: 17.8 µM
TGI [8]: 53.9 µM
GI50 [9]: 0.857 µM
TGI [9]: 5.69 µM
GI50 [10]: 3.77 µM
TGI [10]: > 100 µM
GI50 [11]: 5.07 µM
TGI [11]: 22.7 µM
GI50 [12]: 2.99 µM
TGI [12]: > 100 µM
GI50 [13]: 7.54 µM
TGI [13]: > 100 µM
GI50 [14]: 0.598 µM
TGI [14]: > 100 µM
GI50 [15]: 2.02 µM
TGI [15]: 5.81 µM
GI50 [16]: 2.87 µM
TGI [16]: 25 µM
GI50 [17]: 0.682 µM
TGI [17]: 37.9 µM
GI50 [18]: 5.38 µM
TGI [18]: 54 µM
GI50 [19]: 4.99 µM
TGI [19]: 32.2 µM
GI50 [20]: 3.11 µM
TGI [20]: 40 µM
GI50 [21]: 0.816 µM
TGI [21]: 15 µM
GI50 [22]: 1.63 µM
TGI [22]: 4.76 µM
GI50 [23]: 2.2 µM
TGI [23]: 15.6 µM
GI50 [24]: 4.55 µM
TGI [24]: 40.6 µM
GI50 [25]: 0.625 µM
TGI [25]: 10.2 µM
GI50 [26]: 0.451 µM
TGI [26]: 21.8 µM
GI50 [27]: 2.21 µM
TGI [27]: 18.2 µM
GI50 [28]: 1.01 µM
TGI [28]: 11.2 µM
GI50 [29]: 4.48 µM
TGI [29]: 24 µM
GI50 [30]: 0.343 µM
TGI [30]: 79.3 µM
GI50 [31]: 3.65 µM
TGI [31]: 55 µM
GI50 [32]: 0.395 µM
TGI [32]: 46.4 µM
GI50 [33]: 2.43 µM
TGI [33]: 16.4 µM
GI50 [34]: 0.644 µM
TGI [34]: 3.37 µM
GI50 [35]: 2.55 µM
TGI [35]: 16.2 µM
GI50 [36]: 4.95 µM
TGI [36]: 32.4 µM
GI50 [37]: 0.716 µM
TGI [37]: 14.4 µM
GI50 [38]: 0.861 µM
TGI [38]: 80 µM
GI50 [39]: 3.01 µM
TGI [39]: 16.4 µM
GI50 [40]: 3.14 µM
TGI [40]: > 100 µM
GI50 [41]: 1.39 µM
TGI [41]: 14.5 µM
GI50 [42]: 2.63 µM
TGI [42]: > 100 µM
GI50 [44]: 2.25 µM
TGI [44]: 16.9 µM
GI50 [45]: 0.634 µM
TGI [45]: 14.6 µM
GI50 [46]: 1.93 µM
TGI [46]: 25.4 µM
GI50 [47]: 2.86 µM
TGI [47]: > 100 µM
GI50 [48]: 2.09 µM
TGI [48]: 8.14 µM
GI50 [49]: 2.87 µM
TGI [49]: 26.2 µM
GI50 [50]: 0.614 µM
TGI [50]: 17.5 µM
GI50 [51]: 5.4 µM
TGI [51]: 45.7 µM
GI50 [52]: 0.82 µM
TGI [52]: 2.82 µM
GI50 [53]: 1.89 µM
TGI [53]: 16.6 µM
GI50 [54]: 0.982 µM
TGI [54]: 22.7 µM
GI50 [55]: 2.33 µM
TGI [55]: 16.5 µM
GI50 [56]: 4.26 µM
TGI [56]: > 100 µM
GI50 [57]: 4.69 µM
TGI [57]: > 100 µM
